CCCCCCCCCCCCCCCCCC
Details | solubility (mole fraction)
in cyclohexane, 281.45 K | 0.214
in cyclohexane, 284.35 K | 0.265
in cyclohexane, 287.2 K | 0.35
in cyclohexane, 290.95 K | 0.445
in cyclohexane, 294.8 K | 0.576
in cyclohexane, 297.05 K | 0.704
in ethanol, 283.05 K | 0.0018
in ethanol, 285.75 K | 0.0025
in ethanol, 287.7 K | 0.0032
in ethanol, 289.25 K | 0.0038
in ethanol, 291 K | 0.0047
in ethanol, 292.6 K | 0.0058
in ethanol, 294.35 K | 0.0072
in ethanol, 296.2 K | 0.0093
in ethanol, 297.95 K | 0.0122
in ethanol, 299.45 K | 0.0162
in n-heptane, 276.9 K | 0.124
in n-heptane, 279 K | 0.151
in n-heptane, 281.4 K | 0.183
in n-heptane, 283.7 K | 0.225
in n-heptane, 287.6 K | 0.314
in n-heptane, 290.15 K | 0.393
in n-heptane, 291.9 K | 0.458
in n-heptane, 293.65 K | 0.524
in n-heptane, 296.4 K | 0.647
in n-heptane, 297.65 K | 0.733

CCCCCCCCCCCCCCCCCCC
Details | solubility (mole fraction)
in cyclohexane, 282.25 K | 0.201
in cyclohexane, 283.95 K | 0.233
in cyclohexane, 286.65 K | 0.29
in cyclohexane, 289.65 K | 0.359
in cyclohexane, 292.8 K | 0.458
in cyclohexane, 295.65 K | 0.553
in cyclohexane, 297 K | 0.6
in cyclohexane, 301.75 K | 0.75
in ethanol, 282.7 K | 0.0011
in ethanol, 284.8 K | 0.0014
in ethanol, 286 K | 0.0016
in ethanol, 287.4 K | 0.0019
in ethanol, 288.7 K | 0.0022
in ethanol, 289.95 K | 0.0025
in ethanol, 290.95 K | 0.003
in ethanol, 292.45 K | 0.0035
in ethanol, 293.75 K | 0.0041
in ethanol, 295.6 K | 0.0051
in ethanol, 297.25 K | 0.0062
in ethanol, 300.85 K | 0.0083
in ethanol, 303.85 K | 0.0115
in n-heptane, 278.25 K | 0.129
in n-heptane, 279.5 K | 0.145
in n-heptane, 280.95 K | 0.164
in n-heptane, 282.45 K | 0.19
in n-heptane, 284.25 K | 0.22
in n-heptane, 286.55 K | 0.256
in n-heptane, 288.7 K | 0.314
in n-heptane, 290.95 K | 0.393
in n-heptane, 293.7 K | 0.478
in n-heptane, 296.95 K | 0.611
in n-heptane, 302.3 K | 0.786
